Test results taken from US20120058133A1, “INHIBITION OF TRNA SYNTHETASES AND THERAPEUTIC APPLICATIONS THEREOF” (President and Fellows of Harvard College, priority 2009, published 2012).
“Also recorded” adds a separate entry of the source.

Columns and labels:
SV-MES mesangial cells = assay: AAR activation in SV-MES mesangial (fibroblastic) cells; assay type: cell-based; conditions: 2 hours
Experimental: FIG. 11. HF induces a stress response in fibroblasts. SV-MES mesangial cells were stimulated for 2 hours with DMSO, 20 nM MAZ1310, or 20 nM HF. Whole cell lysates were analyzed for expression of phosphorylated or total eIF2α by western blotting.
Duplicate cell samples are shown. […] Activated GCN2 phosphorylates eif2alpha at Ser 51; therefore, this is an expected downstream outcome of AAR activation.

mTOR pathway = mTOR pathway signaling in fibroblasts; assay type: cell-based, mouse; conditions: 100 nM HF
Experimental: FIG. 25. […] MEFs growing in DME/10% FCS were treated with 100 nM HF or 0.5 μM Rapamycin and analyzed by Western blot for phosphorylation of component of the mTor signaling pathway. Lane 1: 100 nM MAZ1310 1 hr; Lane 2: 100 nM HF 8 hr; Lane 3: 100 nM HF 4 hr; Lane 4: 100 nM HF 2 hr; Lane 5: 100 nM HF 1 hr; Lane 6: 0.5 μM Rapamycin 1 hr.

Xbp-1 splicing = assay: ER stress / unfolded protein response (Xbp-1 splicing) in T cells; assay type: cell-based, mouse; conditions: for Xbp-1 splicing: TCR activation 4 hours, 1 μg/ml tunicamycin, 10 nM HF
Experimental: (§1) FIG. 5. […] FIG. 5A depicts western blot and Xbp1 splicing analysis of CD4^+ CD25^− T cells left unstimulated, or activated through the TCR for 4 hours in complete medium (complete—200 μM Cys/100 μM Met), medium lacking Cys/Met (−Cys/Met) or complete medium containing 1 μg/ml tunicamycin, 10 nM HF or 10 nM MAZ1310. Western blotting was performed on whole cell extracts with the indicated antibodies. Xbp-1 splicing assay was performed on cDNA synthesized from T cell cultures.

[1] = tested on: amino acid starvation response pathway; assay: Amino acid starvation response (eIF2α phosphorylation, ATF4, AAR genes) in T cells; assay type: cell-based, mouse; conditions: for eIF2α phosphorylation and ATF4 expression: 1 μg/ml tunicamycin
Experimental: FIG. 4C is a graph depicting results of quantitative real-time PCR performed on cDNA generated from unstimulated naïve T cells or those activated for 4 hours in the presence of 10 nM MAZ1310 or 10 nM HF. Asns, Gpt2 or eIF4Ebp1 mRNA expression was normalized to Hprt levels and data are presented as mean values ±SD in duplicate samples.
FIG. 4D depicts western blot analysis of purified CD4^+ CD25^− T cells either unstimulated, or TCR-activated without exogenous cytokines in the presence of DMSO, 40 nM MAZ1310 or titrating concentrations of HF (1.25-40 nM). Whole cell lysates were prepared 4 hours-post TCR activation and immunoblotting was performed with the indicated antibodies. ATF4 protein is indicated by arrowhead. NS—non-specific band.
FIG. 4E depicts western blot analysis of purified CD4^+ CD25^− T cells activated through the TCR for the indicated times without exogenous cytokines in the presence of either 10 nM MAZ1310 or 10 nM HF as indicated. Whole cell lysates were prepared during the timecourse and immunoblotting was performed.
FIG. 4F depicts western blot analysis of CD4^+ CD25^− T cells either left unstimulated or were TCR-activated in the absence or presence of the indicated polarizing cytokine conditions and 10 nM MAZ1310 or 10 nM HF as indicated. Whole cell lysates were generated 4 hours after activation and immunoblotting was performed. Microarray data were generated from three independent experiments and all other data are representative of at least two similar experiments.
as §1
T cells were activated as described above, collected at the indicated times and pellets were flash-frozen in liquid nitrogen. Total RNA was obtained by RNeasy (Quiagen—Valencia, Calif.) column purification per manufacturers instructions. RORγt expression was determined after reverse transcription using the message sensor kit (Ambion—Austin, Tex.) per the manufacturer's instructions and taqman primers and probe as described elsewhere (Ivanov et al., Cell 126:1121, 2006). Sybrgreen quantitative real-time PCR was performed on T cell RNA samples following reverse transcription via SuperScript II first-strand cDNA synthesis kit (Invitrogen—Carlsbad, Calif.). All PCR data was collected on an iCycler thermal cycler (Biorad—Hercules, Calif.). Primer sequences used for detecting stress response genes are listed below.
Whole cell lysates were generated from T cells activated for the indicated times. For STAT3 and Smad2/3 western blots cells were harvested, washed in PBS and lysed in 50 mM Tris, pH 7.4, 0.1% SDS, 1% Triton-X 100, 140 mM NaCl, 1 mM EDTA, 1 mM EGTA supplemented with protease inhibitors tablets (Roche—Germany), 1 mM NaF and 1 mM Na3VO4. For eIF2α and ATF4 western blots, cells were harvested as above and lysed in 50 mM Tris, pH 7.4, 2% SDS, 20% glycerol and 2 mM EDTA supplemented with protease and phosphatase inhibitors as above. All lysates were cleared via centrifugation and 15-30 μg of protein was resolved by SDS-PAGE. Protein was transferred to nitrocellulose membranes, blocked and blotted using specific antibodies. Antibodies used for western blot analysis were anti-phospho-Smad2, anti-STAT3 (pY705), anti-STAT3, anti-eIF2α^ps51, anti-eIF2α (all from cell signaling technology—Danvers, Mass.). Anti-ATF4/CREB2 and anti-β-actin were purchased from Santa Cruz Biotechnology (Santa Cruz, Calif.). HRP-conjugated secondary antibodies were all purchased from Sigma, with the exception of HRP-conjugated anti-armenian hamster antibody (Jackson Immunoresearch—West Grove, Pa.). […]

[2] = TCR activation 4 hours, 10 nM HF

Molecule | eIF2α phosphorylation in cultured fibroblasts (SV-MES mesangial cells; 20 nM HF) | GCN2 Thr898 phosphorylation (SV-MES mesangial cells; 20 nM) | signaling downstream of mTOR (mTOR pathway) | expression of hallmark ER stress response genes (Xbp-1 splicing) | Xbp-1 splicing (Xbp-1 splicing) | time to maximum eIF2α phosphorylation ([1]; 10 nM HF) | time until which ATF4 protein continued to accumulate ([1]; 10 nM HF) | ATF4 expression in differentiated and naïve T cells ([1]; 10 nM HF, 4 hours) | eIF2α phosphorylation in resting naïve T cells and ThN, Th1, Th2, iTreg, Th17 conditions ([1]; 10 nM HF, 4 hours) | AAR-associated genes (Asns, Gpt2, eIF4Ebp1) by qPCR ([1]; 10 nM HF, within 4 hours of T cell activation) | effect of added proline on HF-induced eIF2alpha phosphorylation ([1]; 10 nM halofuginone, 1 mM amino acid) | eif2alpha Ser51 phosphorylation in wild type and GCN2−/− T cells ([1]; 10 nM, TCR activation 4 hours) | concentration at which eIF2α phosphorylation plateaued ([1]; 4 hours post TCR activation) | concentration giving detectable eIF2α phosphorylation ([1]; 4 hours post TCR activation) | concentration with highest ATF4 expression levels ([1]; 4 hours post TCR activation) | concentrations at which ATF4 expression was reduced ([1]; 4 hours post TCR activation) | eIF2α phosphorylation and ATF4 expression [1, 2]
O=C(CC1NCCCC1O)Cn1cnc2cc(Br)c(Cl)cc2c1=O (racemic) [HF, halofuginone] | increased eIF2α phosphorylation | activation of GCN2 phosphorylation | does not directly inhibit downstream targets of the mTOR pathway; also recorded: did not inhibit signaling downstream of mTOR; also recorded: without concomitant inhibition of mTOR signaling | did not induce | without promoting Xbp-1 splicing | ≤ 2 h | 4 h | induced ATF4 expression in all differentiated T cells, but not in naïve T cells | induced eIF2α phosphorylation | induced | blocked by added proline | leads to phosphorylation of Ser51 of eif2alpha only in wild type cells and not in GCN2^−/− cells | 5 to 10 nM | 2.5 nM | 5 to 10 nM | 20 to 40 nM | inducing eIF2α phosphorylation
tunicamycin |  |  |  |  | together with Xbp-1 splicing |  |  |  |  |  |  |  |  |  |  |  | induced eIF2α phosphorylation and ATF4 expression
